Measurements as given in US20160113940A1, “METHODS OF TREATING BIOFILMS” (BIOMIMETIX J.V., LLC, priority 2013, published 2016).

Tests used:
[1] = system: Biofilm forming Staphylococcus Aureus
Method: A total of 20 C57B5 male mice were randomly divided into four treatment groups after surgery to create an infected femur fracture (midshaft femur fracture fixed with intramedullary 23 g needle and with 10^4 S. aureus added to the fracture site):
2. Antibiotic (Keflex) starting 24 hours post-surgery,
3. SOD mimetic MnTE-2-PyP (starting 24 hours post-surgery,
4. Antibiotic plus MnTE-2-PyP (starting 24 hours post-surgery).
The mice were followed for 2 weeks and received daily access to Keflex in drinking water at […] dose for the antibiotic treated groups and MnTE three time per week (loading dose day 1=5.0 mg/kg SQ, followed by 2.5 mg/kg SQ three times weekly). […] Mice were harvested after 2 weeks and femurs were homogenized in PBS, supernatants were serially diluted and plated to determine cell counts.

[2] = system: Biofilm forming S. aureus; assay: Inhibition of Staphylococcus aureus biofilm formation in vitro (96 well plates, absorbance at 600 nm); assay type: cell-based; details: established 24 h biofilm, 24 hours further growth after treatment, vs PBS; p<0.0001; FIG. 1
Method: Biofilm forming S. aureus was grown in 96 well plates for 24 hours to allow a biofilm to form. Wells were allowed to grow an additional 24 hours after being treated with either PBS or SOD mimetic (Mn (III) tetrakis (N-ethylpyridinium-2-yl) porphyrin, or “MnTE-PyP”). Biofilm intensity was measured using absorbance at 600 nm. […] (p<0.0001)

Row | Structure (SMILES) | Fracture healing compared to no treatment ([1]; infected femur fracture, 2 wks, FIG. 3) | Biofilm intensity (absorbance at 600 nm) [2] | Mortality ([1]; initial post-operative period, mimetic only group, not felt to be related to the compound)
1 | CC1=C(C(=O)O)N2C(=O)[C@@H](NC(=O)[C@H](N)c3ccccc3)[C@H]2SC1 [Keflex, reference compound] | significantly improved fracture healing | – | –
2 | CC[n+]1ccccc1-c1c2nc(c(-c3cccc[n+]3CC)c3ccc([n-]3)c(-c3cccc[n+]3CC)c3nc(c(-c4cccc[n+]4CC)c4ccc1[n-]4)C=C3)C=C2.[Mn+3] [MnTE-2-PyP, Mn (III) tetrakis (N-ethylpyridinium-2-yl) porphyrin] | – | disrupts established S. aureus biofilms in culture | one mouse died
